Assay results reported in PubChem BioAssay AID248 (DTP/NCI, 2004).
Several values for one entry are separate records, joined by “and”; a condition that tells them apart may be missing. Equal entries are not always repeated. Toxic doses and inconclusive results are not listed. Rule as the data show it: active = T/C of 150% or more; inactive = T/C below 125%.

System: L1210 leukemia ip in BDF1 mice, survival T/C
Assay: NCI In Vivo Anticancer Drug Screen. Data for tumor model L1210 Leukemia (intraperitoneal) in B6D2F1 (BDF1) mice
Settings: higher = longer survival
Method in brief: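 Each compound was tested against a transplantable tumor grown in mice. The endpoint was survival, with treated animals benchmarked against vehicle controls as a simple ratio.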

[1] = endpoint: mean survival time, dose: 100.0 mg/kg/injection, schedule: Q01DX001 (ip), vehicle: carboxymethylcellulose (CMC)
[2] = endpoint: mean survival time, dose: 200.0 mg/kg/injection, schedule: Q01DX001 (ip), vehicle: carboxymethylcellulose (CMC)
[3] = endpoint: mean survival time, dose: 400.0 mg/kg/injection, schedule: Q01DX001 (ip), vehicle: carboxymethylcellulose (CMC)
[4] = endpoint: mean survival time, dose: 50.0 mg/kg/injection, schedule: Q04DX003 (ip), vehicle: saline
[5] = endpoint: mean survival time, dose: 100.0 mg/kg/injection, schedule: Q04DX003 (ip), vehicle: saline
[6] = endpoint: mean survival time, dose: 100.0 mg/kg/injection, schedule: Q04DX002 (ip), vehicle: Klucel (hydroxypropylcellulose) (HPC)
[7] = endpoint: mean survival time, dose: 200.0 mg/kg/injection, schedule: Q04DX002 (ip), vehicle: Klucel (hydroxypropylcellulose) (HPC)
[8] = endpoint: mean survival time, dose: 400.0 mg/kg/injection, schedule: Q04DX002 (ip), vehicle: Klucel (hydroxypropylcellulose) (HPC)
[9] = endpoint: mean survival time, dose: 200.0 mg/kg/injection, schedule: Q04DX003 (ip), vehicle: saline

Measured: T/C

O=CCC(O)C(O)C(O)CO (configuration not stated)
inactive: endpoint: mean survival time, dose: 62.5 mg/kg/injection, schedule: Q01DX009 (ip), vehicle: saline 115 % of control and 91 % of control | endpoint: mean survival time, dose: 125.0 mg/kg/injection, schedule: Q01DX009 (ip), vehicle: saline 94 % of control and 95 % of control | endpoint: mean survival time, dose: 125.0 mg/kg/injection, schedule: Q01DX010 (ip), vehicle: saline 94 % of control and 92 % of control | endpoint: mean survival time, dose: 125.0 mg/kg/injection, schedule: Q01DX Z (ip), vehicle: carboxymethylcellulose (CMC) 98 % of control | endpoint: mean survival time, dose: 250.0 mg/kg/injection, schedule: Q01DX001 (ip), vehicle: saline 101 % of control | endpoint: mean survival time, dose: 250.0 mg/kg/injection, schedule: Q01DX009 (ip), vehicle: saline 102 % of control and 104 % of control | endpoint: mean survival time, dose: 250.0 mg/kg/injection, schedule: Q01DX010 (ip), vehicle: saline 97 % of control and 101 % of control | endpoint: mean survival time, dose: 250.0 mg/kg/injection, schedule: Q01DX Z (ip), vehicle: carboxymethylcellulose (CMC) 102 % of control | endpoint: mean survival time, dose: 500.0 mg/kg/injection, schedule: Q01DX001 (ip), vehicle: saline 100 % of control | endpoint: mean survival time, dose: 500.0 mg/kg/injection, schedule: Q01DX009 (ip), vehicle: saline 101 % of control | endpoint: mean survival time, dose: 500.0 mg/kg/injection, schedule: Q01DX010 (ip), vehicle: saline 94 % of control and 101 % of control | endpoint: mean survival time, dose: 500.0 mg/kg/injection, schedule: Q01DX Z (ip), vehicle: carboxymethylcellulose (CMC) 116 % of control | endpoint: mean survival time, dose: 1000.0 mg/kg/injection, schedule: Q01DX001 (ip), vehicle: saline 101 % of control | endpoint: mean survival time, dose: 1000.0 mg/kg/injection, schedule: Q01DX010 (ip), vehicle: saline 102 % of control and 104 % of control | endpoint: mean survival time, dose: 1000.0 mg/kg/injection, schedule: Q01DX Z (ip), vehicle: carboxymethylcellulose (CMC) 109 % of control | endpoint: mean survival time, dose: 2000.0 mg/kg/injection, schedule: Q01DX001 (ip), vehicle: saline 106 % of control | endpoint: median survival time, dose: 62.5 mg/kg/injection, schedule: Q01DX009 (ip), vehicle: saline 100 % of control | endpoint: median survival time, dose: 125.0 mg/kg/injection, schedule: Q01DX009 (ip), vehicle: saline 111 % of control | endpoint: median survival time, dose: 250.0 mg/kg/injection, schedule: Q01DX009 (ip), vehicle: saline 100 % of control | endpoint: median survival time, dose: 500.0 mg/kg/injection, schedule: Q01DX009 (ip), vehicle: saline 100 % of control and 105 % of control

C=CC(C)(C)c1c(OC(C)=O)cc2oc3c(OC(C)=O)c(OC(C)=O)cc(CC=C(C)C)c3c(=O)c2c1O
inactive: [1] 95 % of control | [2] 92 % of control | [3] 111 % of control

OCCOC1CCCCC=C1Br (configuration not stated)
inactive: endpoint: mean survival time, dose: 100.0 mg/kg/injection, schedule: Q04DX003 (ip), vehicle: saline with Tween-80 113 % of control | endpoint: mean survival time, dose: 200.0 mg/kg/injection, schedule: Q04DX003 (ip), vehicle: saline with Tween-80 110 % of control | endpoint: mean survival time, dose: 400.0 mg/kg/injection, schedule: Q04DX003 (ip), vehicle: saline with Tween-80 102 % of control

CCOC(=O)C1CCC(=O)O1 (configuration not stated)
inactive: endpoint: mean survival time, dose: 100.0 mg/kg/injection, schedule: Q04DX002 (ip), vehicle: saline 104 % of control | endpoint: mean survival time, dose: 200.0 mg/kg/injection, schedule: Q04DX002 (ip), vehicle: saline 101 % of control | endpoint: mean survival time, dose: 400.0 mg/kg/injection, schedule: Q04DX002 (ip), vehicle: saline 97 % of control

COc1cccc(CC(C)N)c1OC (configuration not stated)
inactive: endpoint: mean survival time, dose: 25.0 mg/kg/injection, schedule: Q04DX003 (ip), vehicle: saline 103 % of control | [4] 91 % of control | [5] 101 % of control

CC1CCc2nc3ccccc3nc21 (configuration not stated)
inactive: endpoint: mean survival time, dose: 100.0 mg/kg/injection, schedule: Q01DX001 (ip), vehicle: saline 91 % of control | endpoint: mean survival time, dose: 200.0 mg/kg/injection, schedule: Q01DX001 (ip), vehicle: saline 97 % of control | endpoint: mean survival time, dose: 400.0 mg/kg/injection, schedule: Q01DX001 (ip), vehicle: saline 91 % of control

O=c1cc(-c2ccccc2)nc2c(Cl)cc(Cl)cn12
inactive: endpoint: mean survival time, dose: 100.0 mg/kg/injection, schedule: Q04DX003 (ip), vehicle: acetone 95 % of control | endpoint: mean survival time, dose: 200.0 mg/kg/injection, schedule: Q04DX003 (ip), vehicle: acetone 104 % of control | endpoint: mean survival time, dose: 400.0 mg/kg/injection, schedule: Q04DX003 (ip), vehicle: acetone 96 % of control

COC(=O)C(CSCSC)NC(=O)Nc1ccccc1C (configuration not stated)
inactive: endpoint: mean survival time, dose: 100.0 mg/kg/injection, schedule: Q01DX009 (ip), vehicle: saline with Tween-80 102 % of control | endpoint: mean survival time, dose: 200.0 mg/kg/injection, schedule: Q01DX009 (ip), vehicle: saline with Tween-80 90 % of control | endpoint: mean survival time, dose: 400.0 mg/kg/injection, schedule: Q01DX009 (ip), vehicle: saline with Tween-80 97 % of control

O=C(/C=C/C(=O)c1ccccc1)c1ccccc1
inactive: endpoint: mean survival time, dose: 75.0 mg/kg/injection, schedule: Q04DX003 (ip), vehicle: Klucel (hydroxypropylcellulose) (HPC) 98 % of control | [6] 98 % of control | endpoint: mean survival time, dose: 150.0 mg/kg/injection, schedule: Q04DX003 (ip), vehicle: Klucel (hydroxypropylcellulose) (HPC) 97 % of control | [7] 106 % of control | endpoint: mean survival time, dose: 300.0 mg/kg/injection, schedule: Q04DX003 (ip), vehicle: Klucel (hydroxypropylcellulose) (HPC) 104 % of control

CC1(C)CCC2=C(C1)Nc1ccc(Cl)cc1NC2c1ccc([N+](=O)[O-])cc1 (configuration not stated)
inactive: [6] 117 % of control | [7] 109 % of control | [8] 98 % of control

O=C1C=C(C23CC4CC(CC(C4)C2)C3)N2CCCc3cccc(c32)N1
inactive: [6] 97 % of control | [7] 105 % of control | [8] 97 % of control

N=C(N)c1ccc(OCCCCCOc2ccc(C(=N)N)cc2)cc1
inactive: endpoint: mean survival time, dose: 12.5 mg/kg/injection, schedule: Q01DX Z (oral), vehicle: saline 95 % of control | endpoint: mean survival time, dose: 25.0 mg/kg/injection, schedule: Q01DX Z (oral), vehicle: saline 95 % of control | endpoint: mean survival time, dose: 50.0 mg/kg/injection, schedule: Q01DX Z (oral), vehicle: saline 100 % of control | endpoint: mean survival time, dose: 100.0 mg/kg/injection, schedule: Q01DX Z (oral), vehicle: saline 100 % of control

C#CC[N+](C)(C)CC#C
inactive: [4] 102 % of control | [5] 94 % of control | [9] 93 % of control

N#CCCP(=O)(CCC#N)CCC#N
inactive: [4] 98 % of control | [5] 98 % of control | [9] 101 % of control | endpoint: mean survival time, dose: 400.0 mg/kg/injection, schedule: Q04DX003 (ip), vehicle: saline 101 % of control

COC(=O)/C=C/c1cccnc1
inactive: endpoint: mean survival time, dose: 50.0 mg/kg/injection, schedule: Q04DX003 (ip), vehicle: Klucel (hydroxypropylcellulose) (HPC) 103 % of control | endpoint: mean survival time, dose: 100.0 mg/kg/injection, schedule: Q04DX003 (ip), vehicle: Klucel (hydroxypropylcellulose) (HPC) 93 % of control | endpoint: mean survival time, dose: 200.0 mg/kg/injection, schedule: Q04DX003 (ip), vehicle: Klucel (hydroxypropylcellulose) (HPC) 103 % of control

N#CCCN(C(=O)Nc1cccc(C(F)(F)F)c1)C1CCCCC1
inactive: [1] 100 % of control and 103 % of control | endpoint: mean survival time, dose: 100.0 mg/kg/injection, schedule: Q01DX009 (ip), vehicle: carboxymethylcellulose (CMC) 90 % of control | endpoint: mean survival time, dose: 100.0 mg/kg/injection, schedule: Q04DX002 (ip), vehicle: carboxymethylcellulose (CMC) 93 % of control and 89 % of control | endpoint: mean survival time, dose: 100.0 mg/kg/injection, schedule: Q04DX003 (ip), vehicle: carboxymethylcellulose (CMC) 100 % of control and 103 % of control | [2] 96 % of control and 100 % of control | endpoint: mean survival time, dose: 200.0 mg/kg/injection, schedule: Q01DX009 (ip), vehicle: carboxymethylcellulose (CMC) 90 % of control | endpoint: mean survival time, dose: 200.0 mg/kg/injection, schedule: Q04DX002 (ip), vehicle: carboxymethylcellulose (CMC) 93 % of control | endpoint: mean survival time, dose: 200.0 mg/kg/injection, schedule: Q04DX003 (ip), vehicle: carboxymethylcellulose (CMC) 93 % of control | [3] 92 % of control and 102 % of control | endpoint: mean survival time, dose: 400.0 mg/kg/injection, schedule: Q04DX002 (ip), vehicle: carboxymethylcellulose (CMC) 86 % of control | endpoint: mean survival time, dose: 400.0 mg/kg/injection, schedule: Q04DX003 (ip), vehicle: carboxymethylcellulose (CMC) 95 % of control
